Experimental data taken from ChEMBL document CHEMBL1201862, “PubChem BioAssay data set” (2004).
The source made the active and inactive calls.

Legend:
[1] = growth suppression of beta-catenin-knockout colon cells, dose response, cell-based, HCT116, human colon tumor (AID 1045); format: functional;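 note: HCT116 colon tumor cells with beta catenin knocked out; cells exposed to compound for 60 hours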
[2] = growth suppression of PTEN-null colon cells, dose response, cell-based, HCT116 PTEN knockout (AID 1047); format: functional;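 note: HCT116 colon tumor cells with PTEN knocked out; cells exposed to compound for 60 hours before readout; potency for loss of cell viability measured by luminescence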
[3] = biological target: T1, Corticotropin-releasing factor receptor 2/Corticotropin-releasing factor-binding protein (Homo sapiens, UniProt P24387+Q13324); test: activators of CRF receptor 2 with binding protein – uHTS hits, confirmation (AID 602473); format: functional; conditions: read-out: EC50_Mean
T1 sequence (Q13324 whole entry): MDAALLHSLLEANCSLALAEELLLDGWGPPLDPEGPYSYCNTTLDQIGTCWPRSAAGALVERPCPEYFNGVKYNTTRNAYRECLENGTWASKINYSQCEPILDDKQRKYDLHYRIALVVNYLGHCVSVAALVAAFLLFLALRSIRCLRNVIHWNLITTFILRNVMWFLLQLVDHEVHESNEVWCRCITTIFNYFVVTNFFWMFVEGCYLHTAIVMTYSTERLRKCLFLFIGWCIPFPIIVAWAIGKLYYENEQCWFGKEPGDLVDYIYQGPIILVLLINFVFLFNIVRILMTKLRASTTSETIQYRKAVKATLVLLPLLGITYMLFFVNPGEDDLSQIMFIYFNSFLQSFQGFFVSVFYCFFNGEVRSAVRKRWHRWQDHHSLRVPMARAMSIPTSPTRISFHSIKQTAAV
T1 sequence (P24387 whole entry): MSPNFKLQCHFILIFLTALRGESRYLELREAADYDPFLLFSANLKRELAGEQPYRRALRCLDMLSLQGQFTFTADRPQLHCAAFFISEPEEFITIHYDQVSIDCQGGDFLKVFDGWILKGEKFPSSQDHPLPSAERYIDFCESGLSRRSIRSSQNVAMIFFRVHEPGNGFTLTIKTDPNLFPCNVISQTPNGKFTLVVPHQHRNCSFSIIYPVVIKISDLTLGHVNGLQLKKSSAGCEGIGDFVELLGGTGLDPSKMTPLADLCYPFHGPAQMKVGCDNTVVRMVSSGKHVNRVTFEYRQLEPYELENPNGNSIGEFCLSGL

[4] = biological target: T2, Heat shock factor protein 1 (Mus musculus, UniProt P38532); test: HSF1 potentiators in luciferase reporter cells, confirmation, cell-based, NIH3T3, luminescence, dose retest (AID 435004); format: functional;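 note: stress induced by proteasome inhibitor MG132 added 30 min after compound; luciferase reporter driven by HSF1 response element in NIH3T3 cells; actives raise luminescence as potentiators of the MG132 stress response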
T2 sequence (P38532 whole entry): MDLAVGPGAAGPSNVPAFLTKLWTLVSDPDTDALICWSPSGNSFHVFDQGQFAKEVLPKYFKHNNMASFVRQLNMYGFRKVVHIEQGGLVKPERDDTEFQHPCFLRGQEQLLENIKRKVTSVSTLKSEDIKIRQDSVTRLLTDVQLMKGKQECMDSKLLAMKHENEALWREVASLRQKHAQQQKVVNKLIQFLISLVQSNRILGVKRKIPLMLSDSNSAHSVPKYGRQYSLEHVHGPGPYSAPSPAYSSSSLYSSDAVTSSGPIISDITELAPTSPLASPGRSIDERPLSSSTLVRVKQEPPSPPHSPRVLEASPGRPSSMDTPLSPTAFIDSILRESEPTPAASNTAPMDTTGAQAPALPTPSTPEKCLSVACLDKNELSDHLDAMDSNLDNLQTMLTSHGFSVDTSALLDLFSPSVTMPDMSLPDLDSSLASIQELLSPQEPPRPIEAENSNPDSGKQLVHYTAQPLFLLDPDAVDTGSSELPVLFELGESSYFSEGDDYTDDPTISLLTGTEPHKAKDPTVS

[5] = Luminescence Cell-Based Dose Retest to Confirm Inhibitors of Cancer Stem Cells. [Related pubchem assays (depositor defined):AID2717, AID2721]; format: functional; conditions: Homo sapiens
[6] = HEp-2 cell cytotoxicity, dose response, cytotoxicity control for RSV inhibitor project, HTS (AID 2410); format: functional; conditions: human respiratory syncytial virus
[7] = biological target: Luciferin 4-monooxygenase (Photinus pyralis, UniProt P08659); test: firefly luciferase enzyme inhibitors, dose response, biochemical, luminescence (AID 1891)
[8] = biological target: FAD-linked sulfhydryl oxidase ALR (Homo sapiens, UniProt P55789); test: inhibitors of human ALR sulfhydryl oxidase, dose response, biochemical, H2O2 detection, luminescence, cherry-pick (AID 493248)
[9] = Luminescence Cell-Based Dose Confirmation HTS to Identify Inhibitors of Platelet Dense Granule Release. [Related pubchem assays: 1663 (Primary HTS), 1678 (Summary of Project)]; format: functional
Streptococcus = test: Group A Streptococcus viability loss, dose response, counter-screen for streptokinase expression inhibitor project, luminescence, BacTiterGlo (AID 1915); format: functional, organism-based;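 note: potency for reduction of bacterial viability or growth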
[10] = test system: Streptococcus sp. 'group A'; test: growth inhibition of control SK(-) GAS strain, dose response, counter-screen for streptokinase expression inhibitor project, luminescence, kanamycin, BacTiterGlo, confirmation (AID 1900); format: functional, organism-based
[11] = Luminescence Cell-Based Dose Response HTS to Identify Inhibitors of 5'UTR Stem-Loop Driven Prion Protein mRNA Translation in H4 Neuroglioblastoma Cells. [Related pubchem assays: 1827 (Project Summary), 1813 (Primary HTS)]; format: functional
[12] = inhibitors of firefly luciferase expression or activity, dose response, H4 neuroglioma cells, luminescence (AID 1990); format: functional, cell-based
[13] = inhibitors of SNCA 5'UTR-driven reporter translation, confirmation, H4 neuroglioma cells, luminescence (AID 1988); format: functional, cell-based
cells = format: functional
[14] = inhibitors of HIV Env-driven cell fusion, dose response, cherry-pick (AID 652057); format: functional, cell-based
[15] = inhibitors of clade B AD8 Env fusion, dose response, cell-based, cherry-pick (AID 652062); format: functional;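 note: luciferase signal from cell-cell fusion driven by HIV-1 clade B AD8 Env; potency is for inhibitors of fusion seen as a drop in luminescence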

Sequence of Luciferin 4-monooxygenase (P08659 whole entry): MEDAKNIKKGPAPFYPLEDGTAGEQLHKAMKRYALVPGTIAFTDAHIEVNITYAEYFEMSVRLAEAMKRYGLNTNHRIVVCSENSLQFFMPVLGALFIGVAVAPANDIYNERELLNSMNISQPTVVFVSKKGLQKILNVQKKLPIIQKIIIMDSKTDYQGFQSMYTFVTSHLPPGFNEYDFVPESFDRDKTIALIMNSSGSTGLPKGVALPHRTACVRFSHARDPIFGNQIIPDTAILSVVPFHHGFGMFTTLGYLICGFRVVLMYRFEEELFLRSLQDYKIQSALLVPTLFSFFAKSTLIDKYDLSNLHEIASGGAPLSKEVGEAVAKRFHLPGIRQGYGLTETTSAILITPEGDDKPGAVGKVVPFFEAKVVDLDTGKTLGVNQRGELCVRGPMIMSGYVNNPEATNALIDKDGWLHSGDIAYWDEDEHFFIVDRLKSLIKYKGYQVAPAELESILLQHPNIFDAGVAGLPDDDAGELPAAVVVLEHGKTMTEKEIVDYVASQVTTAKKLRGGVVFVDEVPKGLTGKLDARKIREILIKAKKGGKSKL
Sequence of FAD-linked sulfhydryl oxidase ALR (P55789 whole entry): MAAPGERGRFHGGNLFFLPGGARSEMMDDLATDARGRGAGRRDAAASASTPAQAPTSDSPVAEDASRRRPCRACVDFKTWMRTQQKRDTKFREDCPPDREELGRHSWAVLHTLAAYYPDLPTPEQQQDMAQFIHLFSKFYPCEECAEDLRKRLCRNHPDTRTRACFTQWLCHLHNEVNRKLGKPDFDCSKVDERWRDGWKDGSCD

COc1cccc(/C(O)=C/c2nc3ccc(C(=O)NCCc4ccc(Cl)cc4)cc3nc2O)c1
EC50 [1]: 4.16 µM (active) | EC50 [2]: 4.26 µM (active) | EC50 [3]: 5.02 µM (active)

CCn1c2ccccc2c2cc(NC(=O)CSc3nnc(-c4cccc(OC)c4)n3N)ccc21
EC50 [4]: 33.9 µM (active) | EC50 [1]: 31.5 µM (active) | EC50 [2]: 32.1 µM (active)

C=C(C)COc1ccc(-c2nc(N)ncc2-c2ccc(Br)cc2)c(O)c1
AC50 [5]: 5.37 µM (active) | CC50 [6]: 15.7 µM (active)

c1ccc(CN2CCC(Nc3nc(-c4cccs4)nc4ccccc34)CC2)cc1
AC50 [5]: 4.2 µM (active)

COc1cccc(C(=O)Nc2ccc(Cl)c(C(F)(F)F)c2)c1
EC50 [1]: 60.1 µM (active) | EC50 [2]: 43.3 µM (active)

O=C(Nc1ccc(Cl)c(Cl)c1)Nc1ccccc1C(=O)O
EC50 [7]: 0.12 µM (active) | AC50 [8]: 0.182 µM (active) | EC50 [9]: 8.59 µM (active)

C=C(C)CN=C(S)NNC(=O)CCn1c2ccc(Cl)cc2c2cc(Cl)ccc21
EC50 (Streptococcus): 8.01 µM (active) | EC50 [10]: 2.84 µM (active) | AC50 [5]: 1.44 µM (active) | EC50 [11]: > 120 µM (not active) | EC50 [12]: > 120 µM (not active) | EC50 [13]: > 120 µM (not active)

Cc1ccc(C(C[N+](=O)[O-])n2nc(C)cc2C)cc1 (stereo not drawn)
AC50 [5]: 13 µM (active)

CC(C)Oc1cccc(C(=O)NC(=S)Nc2ccccc2N2CCOCC2)c1
AC50 [5]: 4.53 µM (active)

CCCCNCc1cc(Br)c(OCc2cccs2)c(OC)c1
EC50 [1]: 16.6 µM (active) | EC50 [2]: 17 µM (active)

O=C(NNC1=Nc2cccc3cccc1c23)c1ccccc1Br
EC50 [1]: 20.8 µM (active) | EC50 [2]: 21.9 µM (active)

O=C(COC(=O)CCc1c[nH]c2ccccc12)NCc1ccc2c(c1)OCO2
IC50 (cells): 11.3 µM (active)

Cc1ccc(S(=O)(=O)N(C)C[C@@H]2Oc3ccc(NC(=O)Nc4ccc5c(c4)OCO5)cc3C(=O)N([C@H](C)CO)C[C@@H]2C)cc1
AC50 [14]: 2.48 µM (active) | AC50 [15]: 5.55 µM (active)

COc1ccc(S(=O)(=O)N(C)C[C@@H]2Oc3ccc(N(C)C)cc3C(=O)N([C@H](C)CO)C[C@@H]2C)cc1
AC50 [14]: 12 µM (active) | AC50 [15]: 26.4 µM (active)

C[C@@H]1CN([C@H](C)CO)C(=O)c2cccc(NS(=O)(=O)c3ccccc3)c2O[C@@H]1CN(C)Cc1ccc(Cl)c(Cl)c1
AC50 [14]: < 0.26 µM (active) | AC50 [15]: 1.67 µM (active)

C[C@H](CO)N1C[C@H](C)[C@H](CN(C)S(=O)(=O)c2ccccc2)Oc2ccc(NS(=O)(=O)c3ccccc3)cc2CC1=O
AC50 [14]: 8.48 µM (active) | AC50 [15]: 13.6 µM (active)

CCCN1[C@H](C(=O)N[C@@H](C)c2ccccc2)[C@@H](CO)[C@@H]2Cn3c(ccc(-c4cccc(F)c4)c3=O)[C@@H]21
AC50 [14]: 41.5 µM (active)

Cc1ccc2[nH]c3nc(N/N=C/c4cccc(O)c4)nnc3c2c1
AC50 [5]: < 0.16 µM (active)

COc1cc(NC(=O)C/C(C)=N/NC(=O)c2cccs2)c(OC)cc1Cl
IC50 (cells): 2.79 µM (active)
